Literature values as cited in US9302977B2, “Method of making monomethyl fumarate” (XenoPort, Inc., priority 2013, dated 2016).
Structures can show the parent of a compound that is named as a salt.

What was measured:
[1] = test system: TNF-induced NF-κB signaling
[2] = as an impurity

Row | Compound | aqueous solubility | TNF-induced DNA binding of NF-κB proteins [1] | TNF-induced nuclear entry of activated NF-κB proteins [1] | TNF-induced tissue factor mRNA and protein expression [1] | genotoxicity [2]
1 | COC(=O)/C=C/C(=O)OC [DMF, dimethyl fumarate] | poor | inhibits | inhibits | inhibits | 
2 | COS(=O)(=O)OC [Dimethyl sulfate] |  |  |  |  | genotoxic
